Laboratory results from patent US20250051686A1, “SURFACTANTS FOR CLEANING PRODUCTS” (AdvanSix Resins & Chemicals LLC, priority 2023, published 2025).

Columns and labels:
Experiment in all cases: Antimicrobial minimum inhibitory concentration (MIC), serial dilution
S. aureus (6538) = type: cell-based, Staphylococcus aureus; details: 24 hours; serial dilution 1.7 fold; 400 ppm max (ADBAC control 20 ppm max)
Description: (§1) The antimicrobial properties of surfactants can be examined using known methods and standard protocols, and various types of microorganisms as treatment targets. As a general matter, standard protocols can be developed to assess antimicrobial minimum inhibitory concentration (MIC) using serial dilution method, giving concentration-dependent microorganism growth inhibition measurements against gram positive (e.g., Streptococcus mutans, which is anaerobic, and Staphylococcus aureus, which is usually aerobic but can grow also anaerobically), gram negative (e.g., Escherichia coli, which is anaerobic, or Pseudomonas aeruginosa, which is aerobic). Bacteria are propagated overnight in a suitable growth medium, e.g., a Tryptic Soy Broth. Prior to testing, the concentrations of the test organisms are established using a spectrophotometer that can measure optical density. Those bacterial samples are then diluted to about 1E3 to 1E4 CFU/mL. […] Test measurements are conducted on replicate 96-well plates, and reported as the rounded whole number average of the determined MIC. […] Measurement variability is then reported based on the determined average in the form of MIC+/−.

P. aeruginosa (9027) = type: cell-based, Pseudomonas aeruginosa; details: 24 hours; serial dilution 1.7 fold; 400 ppm max
Description: as §1

S. mutans (25715) = type: cell-based, Streptococcus mutans; details: 24 hours; serial dilution 1.7 fold; 400 ppm max (ADBAC control 20 ppm max)
Description: as §1

E. coli (8739) = type: cell-based, Escherichia coli; details: 24 hours; serial dilution 1.7 fold; 400 ppm max (ADBAC control 20 ppm max)
Description: as §1

In the case of `CCCCCCCCCCCCCC[N+](C)(C)Cc1ccccc1.[Cl-]` [ADBAC control], the “MIC Result” value (S. aureus (6538)) is reported as 7 +/− 3 ppm, the “MIC Result” value (P. aeruginosa (9027)) is reported as 48 +/− 20 ppm and the “MIC Result” value (S. mutans (25715)) is reported as 7 +/− 3 ppm. For the same compound, the “MIC Result” value (E. coli (8739)) was 16 +/− 7 ppm.
